What was measured:
Test in all cases: In vitro cytotoxicity of peptide/siRNA complexes (MTS)
Conditions in all cases: 35% v/v DMSO
[1] = tested on: MDA-MB-231 cells; format: cell-based
Description: (§1) This study aimed to assess these complexes’ potential as a delivery system for siRNA-mediated gene silencing in cancer cells. Our initial experiments involved the use of the MDA-MB-231 (Figure 6A), MCF-7 (Figure 6B), SK-OV-3 (Figure 7A), and HEK-293 (Figure 7B) cell lines for cell culture and in vitro cytotoxicity studies. After 72 h of incubation, we used an MTS test to determine the cytotoxicity of the developed peptides complexed with scrambled siRNA. The peptide/siRNA complexes were applied to the cells at various concentrations and N/P ratios (from 10 to 100). […] This finding corroborates the results from our previous reports.
(§2) The cell lines selected for this study included MDA-MB-231 (ATCC No. HTB-26, triple-negative breast cancer cell line), MCF-7 (ATCC No. HTB-22, breast adenocarcinoma cells), HEK-293 (ATCC No. CRL-1573, normal kidney cells), and SK-OV-3 (ATCC No. HTB-77, human epithelial ovary adenocarcinoma cells). […]
(§3) The cytotoxicity of the synthesized oleyl-conjugated peptides complexed with scrambled siRNA was evaluated in vitro using the aforementioned cell lines. […]
(§4) For the assay, 10,000 cells per 0.1 mL were seeded into each well of a 96-well plate using a multichannel pipette and allowed to adhere for 24 h in a standard cell culture incubator. Cell health and confluency were assessed after the initial 24 h period. […]

[2] = tested on: MCF-7 cells; format: cell-based
Description: as §1, §2, §3, §4

[3] = tested on: HEK-293 cells; format: cell-based
Description: as §1
The cell lines selected for this study included MDA-MB-231 (ATCC No. HTB-26, triple-negative breast cancer cell line), MCF-7 (ATCC No. HTB-22, breast adenocarcinoma cells), HEK-293 (ATCC No. CRL-1573, normal kidney cells), and SK-OV-3 (ATCC No. HTB-77, human epithelial ovary adenocarcinoma cells).
as §3, §4

[4] = tested on: SK-OV-3 cells; format: cell-based, human
Description: as §1, §2, §3, §4

Measured: cells to which the positive control was cytotoxic

C[S+](C)[O-] [DMSO]
over 70%: [1] | [2] | [3] | [4]

From PMC11357397, “Design, Synthesis, and Evaluation of Oleyl-WRH Peptides for siRNA Delivery” (Pharmaceuticals, 2024)
